Data taken from patent US12440571B2, “Immune agonists” (SHENZHEN UNIVERSITY, priority 2020, dated 2025).
Like-named read-outs stand apart in the source and are kept apart here.

Experiments:
Format in all cases: cell-based
[1] = tested on: human lymphoma Raji cells; assay: CCK8 growth inhibition, Raji; details: CCK8 method, read-out: IC50 of inhibitory activity on tumor cell growth, Raji
[2] = target: T1, TLR7 (Homo sapiens, UniProt Q9NYK1); assay: Detection of TLR7 activation (HEK-Blue Detection), SEAP reporter; details: for EC50: HEK-Blue hTLR7 cells, 6-16 hrs, absorbance 650 nm
T1 construct: host or cells: HEK-Blue hTLR7 cells (HEK293-derived SEAP reporter line)
T1 sequence (Q9NYK1 27-1049): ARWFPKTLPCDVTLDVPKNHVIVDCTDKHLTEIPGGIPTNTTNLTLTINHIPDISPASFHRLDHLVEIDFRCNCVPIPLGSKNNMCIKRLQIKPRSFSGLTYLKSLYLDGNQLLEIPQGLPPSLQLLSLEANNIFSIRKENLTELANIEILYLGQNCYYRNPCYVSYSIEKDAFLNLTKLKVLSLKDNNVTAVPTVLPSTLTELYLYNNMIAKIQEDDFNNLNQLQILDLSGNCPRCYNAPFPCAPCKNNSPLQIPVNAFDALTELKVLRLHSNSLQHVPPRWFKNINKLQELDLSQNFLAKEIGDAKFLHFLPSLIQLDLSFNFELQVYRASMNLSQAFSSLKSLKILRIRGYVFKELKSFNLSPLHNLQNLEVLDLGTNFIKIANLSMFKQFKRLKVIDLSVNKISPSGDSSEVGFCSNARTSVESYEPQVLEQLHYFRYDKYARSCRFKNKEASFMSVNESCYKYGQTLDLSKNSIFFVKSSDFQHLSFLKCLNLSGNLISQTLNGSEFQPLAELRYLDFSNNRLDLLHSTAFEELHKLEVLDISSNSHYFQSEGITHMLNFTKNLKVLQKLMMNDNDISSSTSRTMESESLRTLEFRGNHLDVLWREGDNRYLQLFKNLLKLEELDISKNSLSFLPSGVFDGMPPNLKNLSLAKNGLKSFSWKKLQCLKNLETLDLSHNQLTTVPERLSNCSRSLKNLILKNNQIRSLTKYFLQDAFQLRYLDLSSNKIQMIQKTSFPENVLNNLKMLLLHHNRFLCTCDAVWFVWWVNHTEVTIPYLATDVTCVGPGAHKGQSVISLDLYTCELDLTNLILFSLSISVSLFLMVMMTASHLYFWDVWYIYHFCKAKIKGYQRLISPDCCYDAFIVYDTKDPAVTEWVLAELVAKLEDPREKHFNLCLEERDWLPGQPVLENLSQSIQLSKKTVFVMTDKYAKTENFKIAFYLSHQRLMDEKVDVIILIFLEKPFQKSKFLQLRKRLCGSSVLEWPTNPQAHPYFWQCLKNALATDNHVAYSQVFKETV
Protocol: HEK-Blue™hTLR7 cells (purchased from InvivoGen) in a logarithmic growth phase were taken, with a growth medium (Gibco, C11995500BT, Invivo Gen, ant-nr) discarded. The cells were gently rinsed twice by an appropriate amount of 37° C. PBS (Hyclone, SH30256.01), a rinsed PBS was discarded. Thereafter, the cells were added with 2-5 mL of 37° C. PBS, incubated for 1 to 2 minutes, and then scraped by a cell scraper and gently pipetted to be dispersed into a single cell suspension. A hemocytometer was adopted to count the cells and a cell concentration was calculated. After that, a HEK-Blue™ Detection solution (purchased from Invivo Gen) was adopted to adjust the cell concentration of the cell suspension to 2.5×10^4/180 μL per well for cell plating on a 96-well cell culture plate. The HEK-Blue™hTLR7 cells were stimulated according to the designed series of GY compound or drug concentrations (0.01 μM, 0.1 μM, 1 μM, 5 μM, 15 μM, and 30 μM), with 3 replicate wells for each concentration, and were incubated at 37° C., 5% carbon dioxide for 6-16 hrs. After the incubation, the absorbance value was read at 650 nm with a full-wavelength microplate reader (BioTek-Epoch), as listed in Table 2.
Relative induction=(average OD value of experimental group−average OD value of negative control group)/average OD value of negative control group.
Specific details for the above method may be referred to https: • //www.invivogen.com/hek-blue-htlr7; https://www.invivogen.com/sites/default/files/invivogen/products/files/hek_blue_htlr7_tds.pdf.

[3] = tested on: human lymphoma Daudi B cells; assay: CCK8 growth inhibition, Daudi B; details: CCK8 method; read-out: IC50 of inhibitory activity on tumor cell growth, Daudi B
[4] = tested on: human leukemia HL-60 cells; assay: CCK8 growth inhibition, HL60; details: read-out: IC50 of inhibitory activity on tumor cell growth, HL60
[5] = tested on: murine spleen lymphocytes; assay: Cytokine stimulation of murine spleen lymphocytes, ELISA; details: for EC50: Lymphocyte
Protocol: The stimulating effect of a series of GY compounds or drugs on murine spleen lymphocytes was detected by ELISA.
6-week-old Balb/c mice were sacrificed by cervical dislocation, spleens were taken under aseptic conditions. A 1 mL sterile syringe and a 200 mesh cell strainer were adopted to quickly grind and disperse the spleen into individual cells in 4 mL of a murine lymphocyte separation solution (Dakko's, 7211011). A resulting cell homogenate was transferred to a 15 mL centrifuge tube, then 1 mL of a RPMI 1640 medium (Hyclone, SH30809.01) was slowly added. Spleen lymphocytes were separated by a density gradient centrifugation method (800×g, 30 min), washed, red blood cells therein were lysed, such that a dispersed spleen lymphocyte suspension was obtained. Cells were counted by a hemocytometer, to calculate the cell concentration. A RPMI 1640 complete medium was adopted to adjust the cell suspension to a concentration of 1×10^6/ml/well, and the cells were then plated on a 24-well cell culture plate (Corning, 3524).
Murine spleen lymphocytes were stimulated according to the gradient concentrations of the series of GY compounds or drugs, and incubated in a 37° C., 5% carbon dioxide incubator for 24 hrs.
• (1) Coating: a Capture antibody (primary antibody, purchased from Invitrogen) was diluted with a 1×Coating Buffer (coating buffer, purchased from Invitrogen) to a recommended concentration, and 100 μL of a resulting diluted solution was added to each well of a 96-well microtiter plate, the plate was sealed with a sealing film at 4° C. overnight. • (2) Washing: a liquid in each well was discarded, then 300 μL of a PBST working solution was added to each well and kept for 1 min, thereafter, the liquid therein was discarded. The washing process was repeated 3 times. • (3) Blocking: 200 μL of a blocking solution was added to each well. The plate was sealed with a sealing film, and placed on a shaker and incubated at room temperature for 1 hr, then washed and patted to be dry. • (4) Sample incubation: a sample was collected and centrifuged to collect a supernatant. Standards, samples, negative controls, and blank controls were provided in the 96-well microtiter plate, and each concentration or sample were provided with 2 replicates. 100 μL of a standard or sample was added to each well, thereafter, the plate was sealed with a sealing film, incubated on a shaker at room temperature for 1 hr or overnight at 4° C., then washed and pated to be dry. • (5) Secondary antibody incubation: the detection antibody (secondary antibody, purchased from Invitrogen) was diluted to a recommended concentration with a dilution buffer, 100 μL of a secondary antibody was added to each well. After being sealed with a sealing film, the plate was incubated on a shaker at room temperature for 1 hr, then washed and patted to be dry. • (6) Avidin-HRP incubation: Avidin-HRP (horseradish peroxidase marker, purchased from Invitrogen) was diluted to the recommended concentration with a dilution buffer, 100 μL of Avidin-HRP was added to each well. After being sealed with a sealing film, the plate was placed on a shaker and incubated at room temperature for 30 mins, washed 5-7 times by the process of step 2), and patted to be dry. • (7) TMB color development: 100 μL of a TMB color development solution (purchased from Invitrogen) was added to each well, for carrying out reaction for 15 mins at room temperature in the dark. • (8) Stopping reaction: 50 μL of 1M H2SO4 solution was added to each well. • (9) Reading an absorbance value by a microplate reader: the OD value at 450 nm wavelength was read. A standard curve and a parameter nonlinear regression equation were drawn, and a sample concentration was calculated according to the obtained formula.

[6] = Homo sapiens, HL-60, CCK8 method
[7] = mouse immune cells (spleen lymphocytes), 24 hrs, ELISA, read-out: IFN-gamma EC50 of cytokine stimulating activity
[8] = mouse immune cells (spleen lymphocytes), 24 hrs, ELISA, read-out: IL-6 EC50 of cytokine stimulating activity
[9] = mouse immune cells (spleen lymphocytes), 24 hrs, ELISA, read-out: TNF-alpha EC50 of cytokine stimulating activity

## CCCCOc1nc(N)c2nc(O)n(Cc3cn(CCOCCOCCOCCNC(=S)N4CCC(C5CCNc6c(C(N)=O)c(-c7ccc(Oc8ccccc8)cc7)nn65)CC4)nn3)c2n1 (single isomer, unassigned) [GY134]
[1]; Homo sapiens, Raji
  IC50: 5120 nM
[2]; read-out: TLR7(EC50/μM)
  EC50: 1.99 µM
[3]
  IC50: 6990 nM

## CCCCOc1nc(N)c2nc(O)n(Cc3cn(CCOCCOCCOCCNC(=S)N4CCC(C5CCNc6c(C(N)=O)c(-c7ccc(Oc8ccccc8)cc7)nn65)CC4)nn3)c2n1 (single isomer, unassigned) [GY135]
[1]
  IC50: 7600 nM
[4]; [6]
  IC50: 13100 nM
[2]; read-out: TLR7(EC50/μM)
  EC50: 9.07 µM
[3]
  IC50: 14600 nM

## C=C(CC(=O)NCCOCCOCCOCCn1cc(Cn2c(O)nc3c(N)nc(OCCCC)nc32)nn1)C(=O)N1CCC(C2CCNc3c(C(N)=O)c(-c4ccc(Oc5ccccc5)cc4)nn32)CC1 (single isomer, unassigned) [GY137]
[1]
  IC50: 37200 nM
[4]; CCK8 method
  IC50: 27000 nM
[2]; read-out: TLR7(EC50/μM)
  EC50: 2.92 µM
[3]
  IC50: 24600 nM

## CCOCc1nc2c(N)nc3ccccc3c2n1CC(C)(C)O [Compound R848, Resiquimod, reference compound]
[5]; [7]
  EC50: 56 nM
[5]; [8]
  EC50: < 1 nM
[5]; [9]
  EC50: < 1 nM

## C#CCn1c(O)nc2c(N)nc(OCCCC)nc21 [GY100]
[2]
  TLR7 agonist activity (in words): highly active TLR7 agonist
[2]; read-out: TLR7(EC50/μM)
  EC50: 2.25 µM
[5]; [7]
  EC50: 104 nM
[5]; [8]
  EC50: < 1 nM
[5]; [9]
  EC50: < 1 nM

## CCCCOc1nc(N)c2nc(O)n(Cc3cn(CCOCCOCCOCC(=O)O)nn3)c2n1 [GY101]
[2]; read-out: TLR7(EC50/μM)
  EC50: 0.003 µM
[5]; [7]
  EC50: 122 nM
[5]; [8]
  EC50: 1050 nM
[5]; [9]
  EC50: 7 nM

## CCCCOc1nc(N)c2nc(O)n(Cc3cn(CCOCCOCCOCCN)nn3)c2n1 [GY102]
[2]; read-out: TLR7(EC50/μM)
  EC50: 0.79 µM
[5]; [7]
  EC50: 1070 nM
[5]; [8]
  EC50: 637 nM
[5]; [9]
  EC50: 1440 nM

## CCCCOc1nc(N)c2nc(O)n(Cc3cn(CCCCCCCCCCCCP(=O)(O)O)nn3)c2n1 [GY103]
[2]; read-out: TLR7(EC50/μM)
  EC50: 0.86 µM
[5]; [7]
  EC50: 3340 nM
[5]; [8]
  EC50: 1510 nM
[5]; [9]
  EC50: 2620 nM

## CCCCOc1nc(N)c2nc(O)n(Cc3cn(CCOCCOCCOCCN=C=S)nn3)c2n1 [GY106]
[2]; TLR7(EC50/μM)
  EC50: 0.08 µM
[5]; Mus musculus, 24 h, read-out: IFN-gamma EC50 of cytokine stimulating activity
  EC50: 2830 nM
[5]; Mus musculus, 24 h, read-out: IL-6 EC50 of cytokine stimulating activity
  EC50: < 1 nM
[5]; Mus musculus, 24 h, read-out: TNF-alpha EC50 of cytokine stimulating activity
  EC50: < 1 nM

## C=C(CC(=O)NCCOCCOCCOCCn1cc(Cn2c(O)nc3c(N)nc(OCCCC)nc32)nn1)C(=O)O [GY109]
[2]; read-out: TLR7(EC50/μM)
  EC50: 0.65 µM
[5]; [7]
  EC50: 983 nM
[5]; [8]
  EC50: 653 nM
[5]; [9]
  EC50: 153 nM

## CCCCOc1nc(N)c2nc(O)n(Cc3cn(CCOCCOCCOCCNC(=O)CCC(=O)Nc4cccc5c4CN(C4CCC(=O)NC4=O)C5=O)nn3)c2n1 (stereo not shown) [GY110]
[2]; read-out: TLR7(EC50/μM)
  EC50: 3.17 µM

## CCCCOc1nc(N)c2nc(O)n(Cc3cn(CCOCCOCCOCCNC(=O)c4cc(/N=N/c5ccc(S(=O)(=O)Nc6ccccn6)cc5)ccc4O)nn3)c2n1 [GY113]
[2]; read-out: TLR7(EC50/μM)
  EC50: 1.87 µM

## CCCCOc1nc(N)c2nc(O)n(Cc3cn(CCOCCOCCOCCNC(=O)c4cc5c(Oc6ccc(NC(=O)NC7CC7)c(Cl)c6)ccnc5cc4OC)nn3)c2n1 [GY114]
[2]; read-out: TLR7(EC50/μM)
  EC50: 1.98 µM

## CCCCOc1nc(N)c2nc(O)n(Cc3cn(CCOCCOCCOc4c(OC)cc(/C=C/C(=O)N5CCC=CC5=O)cc4OC)nn3)c2n1 [GY117]
[4]; [6]
  IC50: 19000 nM
[2]; read-out: TLR7(EC50/μM)
  EC50: 0.22 µM

## CCCCOc1nc(N)c2nc(O)n(Cc3cn(CCOCCOCCOCCNC(=S)NC(CCC(=O)NC(CS)C(=O)NCC(=O)O)C(=O)O)nn3)c2n1 (stereo not shown) [GY126]
[2]; read-out: TLR7(EC50/μM)
  EC50: 0.92 µM

## CCCCOc1nc(N)c2nc(O)n(Cc3cn(CCCCCCCCCCCCCCC(=O)O)nn3)c2n1 [GY145]
[2]; read-out: TLR7(EC50/μM)
  EC50: 0.29 µM

## CCCCOc1nc(N)c2nc(O)n(Cc3cn(CCOCCOCCOCC(=O)NO)nn3)c2n1 [GY163]
[5]; [7]
  EC50: 7860 nM
[5]; [8]
  EC50: 1100 nM
[5]; [9]
  EC50: 58 nM

## CCCCOc1nc(N)c2nc(O)n(Cc3cn(CCOCCOCCOCCNC(=S)NNCCc4ccccc4)nn3)c2n1 [GY164]
[5]; [7]
  EC50: 10 nM
[5]; [8]
  EC50: 5930 nM
[5]; [9]
  EC50: 1 nM

## CC(C)Cn1cnc2c(N)nc3ccccc3c21 [Imiquimod, reference compound]
[5]; [8]
  EC50: 8300 nM
[5]; [9]
  EC50: 8350 nM
[5]; mouse immune cells (spleen lymphocytes), 24 hrs, ELISA
  IFN-gamma EC50 of cytokine stimulating activity: No fit
